Among the data in patent US12421211B2, “Heterocyclic compounds” (Hoffmann-La Roche Inc., priority 2021, dated 2025) are IC90 values, retold here.

Structures can show the parent of a compound that is named as a salt.

For this assay, the system named is Acinetobacter baumannii ATCC17961. The experiment in a line: Antimicrobial susceptibility testing: 90% growth inhibitory concentration (IC90) determination. In kind it is cell-based. The settings on record: Acinetobacter baumannii, ATCC17961, 16 h, 90% growth inhibitory concentration, Acinetobacter baumannii ATCC17961, Iso-Sensitest broth, OD 600 nm over 16 h; read-out: ATCC 17961 IC90. In a few lines:
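Growth inhibition derived in log phase from OD600 kinetics (every 20 minutes, 16h, 35±2° C) of ATCC17961 in Iso-Sensitest medium, inoculum ~5×10^5 CFU/ml. Compounds tested as twofold series, 10 points (e.g. 50 to 0.097 μM final); IC90 and IC50 reported.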

Regarding `CNC(=O)Cn1cc(-c2ccc(-c3cnc(C(=O)Nc4ccc(C(=O)N5CCN(C(=O)[C@@H]6C[C@@H](O)C[N+]6(C)C)CC5)c(Cl)c4)n3C)c(F)c2F)c(C)n1` [Example F5, N-[3-chloro-4-[4-[(2S,4R)-4-hydroxy-1,1-dimethyl-pyrrolidin-1-ium-2-carbonyl]piperazine-1-carbonyl]phenyl]-5-[2,3-difluoro-4-[3-methyl-1-[2-(methylamino)-2-oxo-ethyl]pyrazol-4-yl]phenyl]-1-methyl-imidazole-2-carboxamide; formate], the IC90 (usually the concentration at which the effect reaches the 90% level) was found to be 280 nM.

For `Cn1c(-c2ccc(-c3cn(CCOC(F)F)nc3C(F)(F)F)c(F)c2F)cnc1C(=O)Nc1ccc(C(=O)N2CCN(C(=O)C3CC[N+](C)(C)CC3)CC2)c(Cl)c1` [Example F6, N-[3-chloro-4-[4-(1,1-dimethylpiperidin-1-ium-4-carbonyl)piperazine-1-carbonyl]phenyl]-5-[4-[1-[2-(difluoromethoxy)ethyl]-3-(trifluoro-methyl)pyrazol-4-yl]-2,3-difluoro-phenyl]-1-methyl-imidazole-2-carboxamide; formate], the concentration for an effect of 90% (IC90) turned out to be 570 nM.

With `CC(CO)Cn1cc(-c2ccc(-c3cnc(C(=O)Nc4ccc(C(=O)N5CCN(C(=O)C6CC[N+](C)(C)CC6)CC5)c(Cl)c4)n3C)c(F)c2F)c(C(F)(F)F)n1` (stereo not drawn) [Example F7, N-[3-chloro-4-[4-(1,1-dimethylpiperidin-1-ium-4-carbonyl)piperazine-1-carbonyl]phenyl]-5-[2,3-difluoro-4-[1-(3-hydroxy-2-methyl-propyl)-3-(trifluoro-methyl)pyrazol-4-yl]phenyl]-1-methyl-imidazole-2-carboxamide; formate], the IC90 is 520 nM.

Take `Cc1nn(CCOC(F)F)cc1-c1ccc(-c2cnc(C(=O)Nc3ccc(C(=O)N4CCN(C(=O)[C@@H]5C[C@@H](O)C[N+]5(C)C)CC4)c(Cl)c3)n2C)c(F)c1F` [Example F9, N-[3-chloro-4-[4-[(2S,4R)-4-hydroxy-1,1-dimethyl-pyrrolidin-1-ium-2-carbonyl]piperazine-1-carbonyl]phenyl]-5-[4-[1-[2-(difluoro-methoxy)ethyl]-3-methyl-pyrazol-4-yl]-2,3-difluoro-phenyl]-1-methyl-imidazole-2-carboxamide; formate]: the IC90 came to 160 nM.

As for `Cc1c(-c2ccc(-c3cnc(C(=O)Nc4ccc(C(=O)N5CCN(C(=O)[C@@H]6C[C@@H](O)C[N+]6(C)C)CC5)c(Cl)c4)n3C)c(F)c2F)cnn1CCOC(F)F` [Example F10, N-[3-chloro-4-[4-[(2S,4R)-4-hydroxy-1,1-dimethyl-pyrrolidin-1-ium-2-carbonyl]piperazine-1-carbonyl]phenyl]-5-[4-[1-[2-(difluoro-methoxy)ethyl]-5-methyl-pyrazol-4-yl]-2,3-difluoro-phenyl]-1-methyl-imidazole-2-carboxamide; formate], the 90% effect concentration (IC90) was determined as 75 nM.

`COCCn1cc(-c2ccc(-c3cnc(C(=O)Nc4ccc(C(=O)N5CCN(C(=O)[C@@H]6C[C@@H](O)C[N+]6(C)C)CC5)c(Cl)c4)n3C)c(F)c2F)c(C(C)C)n1` [Example F11, N-[3-chloro-4-[4-[(2S,4R)-4-hydroxy-1,1-dimethyl-pyrrolidin-1-ium-2-carbonyl]piperazine-1-carbonyl]phenyl]-5-[2,3-difluoro-4-[3-isopropyl-1-(2-methoxyethyl)pyrazol-4-yl]phenyl]-1-methyl-imidazole-2-carboxamide; formate]: the IC90 was determined as 800 nM.

For the molecule `COCCn1ncc(-c2ccc(-c3cnc(C(=O)Nc4ccc(C(=O)N5CCN(C(=O)[C@@H]6C[C@@H](O)C[N+]6(C)C)CC5)c(Cl)c4)n3C)c(F)c2F)c1C(F)F` [Example F12, N-[3-chloro-4-[4-[(2S,4R)-4-hydroxy-1,1-dimethyl-pyrrolidin-1-ium-2-carbonyl]piperazine-1-carbonyl]phenyl]-5-[4-[5-(difluoromethyl)-1-(2-methoxyethyl)pyrazol-4-yl]-2,3-difluoro-phenyl]-1-methyl-imidazole-2-carboxamide; formate], the IC90 was determined as 170 nM.

Regarding `COCCn1ncc(-c2ccc(-c3cnc(C(=O)Nc4ccc(C(=O)N5CCN(C(=O)[C@@H]6C[C@@H](O)C[N+]6(C)C)CC5)c(C)c4)n3C)c(F)c2F)c1C` [Example F14, 5-[2,3-difluoro-4-[1-(2-methoxyethyl)-5-methyl-pyrazol-4-yl]phenyl]-N-[4-[4-[(2S,4R)-4-hydroxy-1,1-dimethyl-pyrrolidin-1-ium-2-carbonyl]piperazine-1-carbonyl]-3-methyl-phenyl]-1-methyl-imidazole-2-carboxamide; 2,2,2-trifluoroacetate], the IC90 worked out at 100 nM.

Turning to `COCCn1ncc(-c2ccc(-c3cnc(C(=O)Nc4ccc(C(=O)N5CCN(C(=O)[C@@H]6C[C@@H](O)C[N+]6(C)C)CC5)c(Cl)c4)n3C)c(F)c2F)c1C` [Example F15, N-[3-chloro-4-[4-[(2S,4R)-4-hydroxy-1,1-dimethyl-pyrrolidin-1-ium-2-carbonyl]piperazine-1-carbonyl]phenyl]-5-[2,3-difluoro-4-[1-(2-methoxyethyl)-5-methyl-pyrazol-4-yl]phenyl]-1-methyl-imidazole-2-carboxamide; 2,2,2-trifluoroacetate], the IC90 amounted to 55 nM.

Consider `Cc1nn(CCCO)cc1-c1ccc(-c2cnc(C(=O)Nc3ccc(C(=O)N4CCN(C(=O)[C@@H]5C[C@@H](O)C[N+]5(C)C)CC4)c(Cl)c3)n2C)c(F)c1F` [Example F16, N-[3-chloro-4-[4-[(2S,4R)-4-hydroxy-1,1-dimethyl-pyrrolidin-1-ium-2-carbonyl]piperazine-1-carbonyl]phenyl]-5-[2,3-difluoro-4-[1-(3-hydroxypropyl)-3-methyl-pyrazol-4-yl]phenyl]-1-methyl-imidazole-2-carboxamide; formate], for which the IC90 turned out to be 240 nM.

`Cc1c(-c2ccc(-c3cnc(C(=O)Nc4ccc(C(=O)N5CCN(C(=O)[C@@H]6C[C@@H](O)C[N+]6(C)C)CC5)c(Cl)c4)n3C)c(F)c2F)cnn1CCCO` [Example F17, N-[3-chloro-4-[4-[(2S,4R)-4-hydroxy-1,1-dimethyl-pyrrolidin-1-ium-2-carbonyl]piperazine-1-carbonyl]phenyl]-5-[2,3-difluoro-4-[1-(3-hydroxypropyl)-5-methyl-pyrazol-4-yl]phenyl]-1-methyl-imidazole-2-carboxamide; formate]: the IC90 came to 270 nM.

Turning to `COCCn1ncc(-c2ccc(-c3cnc(C(=O)Nc4ccc(C(=O)N5CCN(C(=O)C6CC[N+](C)(C)CC6)CC5)c(Cl)c4)n3C)c(OC)c2)c1C` [Example F18, N-[3-chloro-4-[4-(1,1-dimethylpiperidin-1-ium-4-carbonyl)piperazine-1-carbonyl]phenyl]-5-[2-methoxy-4-[1-(2-methoxyethyl)-5-methyl-pyrazol-4-yl]phenyl]-1-methyl-imidazole-2-carboxamide; formate], the IC90 was 1100 nM.

With `COCCn1ncc(-c2ccc(-c3cnc(C(=O)Nc4ccc(C(=O)N5CCN(C(=O)C6CC[N+](C)(C)CC6)CC5)c(Cl)c4)n3C)c(C)c2)c1C` [Example F19, N-[3-chloro-4-[4-(1,1-dimethylpiperidin-1-ium-4-carbonyl)piperazine-1-carbonyl]phenyl]-5-[4-[1-(2-methoxyethyl)-5-methyl-pyrazol-4-yl]-2-methyl-phenyl]-1-methyl-imidazole-2-carboxamide; formate], the IC90 was 330 nM.

Take `CCc1c(-c2ccc(-c3cnc(C(=O)Nc4ccc(C(=O)N5CCN(C(=O)[C@@H]6C[C@@H](O)C[N+]6(C)C)CC5)c(Cl)c4)n3C)c(F)c2F)cnn1CCOC` [Example F20, N-[3-chloro-4-[4-[(2S,4R)-4-hydroxy-1,1-dimethyl-pyrrolidin-1-ium-2-carbonyl]piperazine-1-carbonyl]phenyl]-5-[4-[5-ethyl-1-(2-methoxyethyl)pyrazol-4-yl]-2,3-difluoro-phenyl]-1-methyl-imidazole-2-carboxamide; formate]: the concentration for an effect of 90% (IC90) came out at 180 nM.

For `COCCn1ncc(-c2ccc(-c3cnc(C(=O)Nc4ccc(C(=O)N5CCN(C(=O)C6CC[N+](C)(C)CC6)CC5)c(Cl)c4)n3C)c(Cl)c2)c1C` [Example F22, N-[3-chloro-4-[4-(1,1-dimethylpiperidin-1-ium-4-carbonyl)piperazine-1-carbonyl]phenyl]-5-[2-chloro-4-[1-(2-methoxyethyl)-5-methyl-pyrazol-4-yl]phenyl]-1-methyl-imidazole-2-carboxamide; formate], the IC90 came to 170 nM.

For the molecule `COCCn1ncc(-c2ccc(-c3cnc(C(=O)Nc4ccc(C(=O)N5CCN(C(=O)C6CC[N+](C)(C)CC6)CC5)c(Cl)c4)n3C)c(OC)c2F)c1C` [Example F23, N-[3-chloro-4-[4-(1,1-dimethylpiperidin-1-ium-4-carbonyl)piperazine-1-carbonyl]phenyl]-5-[3-fluoro-2-methoxy-4-[1-(2-methoxyethyl)-5-methyl-pyrazol-4-yl]phenyl]-1-methyl-imidazole-2-carboxamide; formate], the IC90 worked out at 750 nM.

`CCc1nn(CCOC)cc1-c1ccc(-c2cnc(C(=O)Nc3ccc(C(=O)N4CCN(C(=O)CC5(O)CC[N+](C)(C)CC5)CC4)c(Cl)c3)n2C)c(F)c1F` [Example F24, N-[3-chloro-4-[4-[2-(4-hydroxy-1,1-dimethyl-piperidin-1-ium-4-yl)acetyl]piperazine-1-carbonyl]phenyl]-5-[4-[3-ethyl-1-(2-methoxyethyl)pyrazol-4-yl]-2,3-difluoro-phenyl]-1-methyl-imidazole-2-carboxamide; formate]: the IC90 turned out to be 590 nM.

With `COCCn1cc(-c2ccc(-c3cnc(C(=O)Nc4ccc(C(=O)N5CCN(C(=O)C6CC[N+](C)(C)CC6)CC5)c(Cl)c4)n3C)c(F)c2F)c(CO)n1` [Example F25, N-[3-chloro-4-[4-(1,1-dimethylpiperidin-1-ium-4-carbonyl)piperazine-1-carbonyl]phenyl]-5-[2,3-difluoro-4-[3-(hydroxymethyl)-1-(2-methoxyethyl)pyrazol-4-yl]phenyl]-1-methyl-imidazole-2-carboxamide; formate], the IC90 turned out to be 1200 nM.
